Laboratory results published in patent US9724448B2, “Materials for gastrointestinal obstruction prevention” (3-D MATRIX, LTD., priority 2013, dated 2017).
Where two headings read alike, the source gives them in different places.

Key:
Assay type in all cases: in vivo, human
[1] = system: gastric ESD-induced ulcers; assay: Gastric ulcer stage by endoscopy (active, healing, scarring) after ESD and peptide application
Experimental: After the ESD procedure, a self-assembling peptide was administered to a target area in the subject. […] For every 1 cm^2 of tumor, 1 mL of self-assembling peptide RADA16, in the form of PuraMatrix™ peptide hydrogel by 3-D Matrix, LTD. (2.5 w/v percent) was applied to the ESD-induced ulcer using a catheter immediately after the procedure. A single dose proton pump inhibitor was administered in gastric ESD cases for 8 weeks beginning the morning of the procedure. Gastric ulcer stages were evaluated by endoscopy as active, healing or scarring at 1, 4, and 8 weeks after ESDs, and application of the self-assembling peptide. The primary endpoint was the rate of post-ESD bleeding. The secondary endpoints include the transitional rate to healing and scarring stages of gastric ESD-induced ulcers.

[2] = system: ESD-induced ulcer (esophageal, gastric, colorectal ESD)
Experimental: Testing was performed in human subjects in order to determine the ability of disclosed peptides to prevent gastrointestinal obstruction. Subjects who underwent esophageal, gastric, and colorectal endoscopic submucosal dissection (ESD) by nine endoscopists participated in the testing. Subjects receiving antithrombotic therapy were included in the study, but such medications were no longer being administered prior to the procedures. Cases with perforation and coagulopathy (international normalized ratio (INR)>3) despite anticoaculation management after heparin bridge therapy (HBT) were excluded. […] After the ESD procedure, a self-assembling peptide was administered to a target area in the subject. […] For every 1 cm^2 of tumor, 1 mL of self-assembling peptide RADA16, in the form of PuraMatrix™ peptide hydrogel by 3-D Matrix, LTD. (2.5 w/v percent) was applied to the ESD-induced ulcer using a catheter immediately after the procedure. A single dose proton pump inhibitor was administered in gastric ESD cases for 8 weeks beginning the morning of the procedure. Gastric ulcer stages were evaluated by endoscopy as active, healing or scarring at 1, 4, and 8 weeks after ESDs, and application of the self-assembling peptide. The primary endpoint was the rate of post-ESD bleeding. The secondary endpoints include the transitional rate to healing and scarring stages of gastric ESD-induced ulcers. Of the 117 subjects recruited, 114 patients with 124 lesions (esophagus 18; stomach 42; colorectum 64) were enrolled for outcome analysis and […] were excluded due to perforations and […].

[3] = system: artificial ulcer after ESD of early-stage esophageal cancer; assay: Stenosis prevention after endoscopic resection of esophageal cancer (artificial ulcer, 4/5 circumferential spread)
Experimental: Testing was performed on a subject having an ulcer (lesion) after an endoscopic resection of esophageal cancer. […] Endoscopic submucosal dissection was performed, which created an ulcer. […] A ⅘ circumferential spread may cause stenosis in the absence of applying a peptide solution to form a hydrogel. After confirming that there was no hemorrhaging in the artificial ulcer surface after an endoscopic resection, a catheter was passed through an endoscope, and a peptide solution such as PuraMatrix™ peptide hydrogel by 3-D Matrix, LTD. (2.5%, suitable dose (1 mL per 1 cm^2)) in a syringe was coated evenly over the ulcer surface. […] On the first week after surgery, an endoscope is used to review the area. At this time, as with the initial round, the peptide solution is coated evenly over the ulcer surface. For past cases, an endoscope was used to perform a third and fourth review of the area, in the fourth and eighth weeks, respectively, after surgery that induced stenosis, to judge the effectiveness of the peptide solution coating. […] The endoscope passage is possible in stenosis direction.

Arg-Ala-Asp-Ala-Arg-Ala-Asp-Ala-Arg-Ala-Asp-Ala-Arg-Ala-Asp-Ala [PuraMatrix]
Transitional rate to healing stage ([1]; at 1 week after ESD, with proton pump inhibitor): 98% | scarring stage at follow up endoscopy ([1]; at 4 weeks after ESD): 21% | scarring stage at follow up endoscopy ([1]; at 8 weeks after ESD): 97% | rate of post-ESD bleeding ([2]; all lesions (2/124), 2.5 w/v percent, 1 mL per 1 cm^2, by catheter immediately after ESD): 1.6% | rate of post-ESD bleeding ([2]; colorectum (1/64; 0.02% to 1.6%)): 1.6% | rate of post-ESD bleeding ([2]; esophagus): 0% | adverse effects related with the use of the self-assembling peptide ([2]; in vivo): no adverse effects | rate of post-ESD bleeding ([2]; stomach (1/43; 95% confidence interval 0.04% to 12.3%)): 2.4% | endoscope passage in stenosis direction ([3]; 4 weeks after surgery): possible | ulcer state by endoscope ([3]; 4 weeks after surgery, 2.5%, 1 mL per 1 cm^2, coated at surgery and at first week): scarring | endoscope passage in stenosis direction ([3]; 8 weeks after surgery): possible | side effects of the endoscopic resection (delayed hemorrhaging, perforations) ([3]; one subject, esophageal ESD): no delayed hemorrhaging or perforations
